Measurements published in the Kinase Knowledgebase extract (Sharma et al. 2016).

What follows are compounds tested against CDK2 (human) (UniProt P24941) (assay: Enzyme Assay).

| Compound | Ki |
| --- | --- |
| O=c1[nH][nH]c2cc(SCC3CCCC3Nc3cc(C4CC4)[nH]n3)ccc12 (stereo not drawn) | < 1000 nM |
| CN1CCN(C(=O)OCc2ccccc2)CC1c1cc(Nc2n[nH]c3ccccc23)nc(-c2ccc3[nH][nH]c(=O)c3c2C(F)(F)F)n1 (stereo not drawn) | < 1000 nM |
| Cc1cc(Nc2nc(-c3c(C)cc4[nH][nH]c(=O)c4c3C)nc3ccccc23)n[nH]1 | < 1000 nM |
| Cc1cnc(NC2CCCC(Oc3ccc4c(=O)[nH][nH]c4c3)C2)s1 (stereo not drawn) | < 1000 nM |
| Cn1cnc(NCCC(Cc2ccccc2)Nc2ccc3c(=O)[nH][nH]c3c2)c1 (stereo not drawn) | < 1000 nM |
| O=c1[nH][nH]c2cc(CCCONc3nccnn3)ccc12 | < 1000 nM |
| O=c1[nH][nH]c2cc(NOCCNc3nccnn3)ccc12 | < 1000 nM |
| Cc1cnc(NC(=O)CCNc2ccc3c(=O)[nH][nH]c3c2)s1 | < 1000 nM |
| Cc1cnc(NCCCCc2ccc3c(=O)[nH][nH]c3c2)s1 | < 1000 nM |
| O=C(CC(=O)Oc1ccc2c(=O)[nH][nH]c2c1)Nc1ccccn1 | < 1000 nM |
| COC[C@H]1CCN(C(=O)c2cc(Nc3nc(-c4ccc5[nH][nH]c(=O)c5c4)nc4ccccc34)n[nH]2)C1 | < 1000 nM |
| Cc1nc(-c2ccc3[nH][nH]c(=O)c3c2C(F)(F)F)nc(Nc2n[nH]c3ccccc23)c1C | < 1000 nM |
| Cc1ccc2nc(Nc3ccc4c(=O)[nH][nH]c4c3)nc(Nc3cc(C4CC4)[nH]n3)c2n1 | < 1000 nM |
| Cn1cnc(NC2COCC(Oc3ccc4c(=O)[nH][nH]c4c3)C2)c1 (stereo not drawn) | < 1000 nM |
| O=c1[nH][nH]c2cc(CC(CCNc3cc(C4CC4)[nH]n3)Cc3ccccc3)ccc12 (stereo not drawn) | < 1000 nM |
| O=c1[nH][nH]c2cc(NC3CCCC(Nc4nccnn4)C3)ccc12 (stereo not drawn) | < 1000 nM |
| O=c1[nH][nH]c2cc(Cl)c(-c3cc(C4CCCCC4)nc(Nc4n[nH]c5ccccc45)n3)cc12 | < 1000 nM |
| O=c1[nH][nH]c2cc(OCCC(Nc3cc(C4CC4)[nH]n3)c3ccccc3)ccc12 (stereo not drawn) | < 1000 nM |
| O=c1[nH][nH]c2cc(NCCONc3cc(C4CC4)[nH]n3)ccc12 | < 1000 nM |
| O=c1[nH][nH]c2ccc(-c3nc(Nc4n[nH]c5ccccc45)cc(Oc4ccccc4)n3)c(C(F)(F)F)c12 | < 1000 nM |
| Cn1cnc(NC2COCC(Sc3ccc4c(=O)[nH][nH]c4c3)C2)c1 (stereo not drawn) | < 1000 nM |
| COCc1cc(Nc2nc(-c3ccc4[nH][nH]c(=O)c4c3C(F)(F)F)nc3ccccc23)n[nH]1 | < 1000 nM |
| Cc1cnc(NC(CCSc2ccc3c(=O)[nH][nH]c3c2)c2ccccc2)s1 (stereo not drawn) | < 1000 nM |

| Compound | Ki |
| --- | --- |
| O=c1[nH][nH]c2ccc(-c3nc4c(c(Nc5n[nH]c6c(F)cccc56)n3)CCCCC4)c(Cl)c12 | < 1000 nM |
| O=c1[nH][nH]c2cc(NCCC(Nc3cc(C4CC4)[nH]n3)c3ccccc3)ccc12 (stereo not drawn) | < 1000 nM |
| O=c1[nH][nH]c2cc(Nc3cc(Nc4n[nH]c5ccccc45)c4ccccc4n3)ccc12 | < 1000 nM |
| O=c1[nH][nH]c2cc([C@@H]3C[C@H]3c3nc(Nc4n[nH]c5ccc(F)cc45)c4ccccc4n3)ccc12 | < 1000 nM |
| O=c1[nH][nH]c2cc(NCCONc3ccccn3)ccc12 | < 1000 nM |
| O=c1[nH][nH]c2cc(OCC3CCCC(Nc4nccnn4)C3)ccc12 (stereo not drawn) | < 1000 nM |
| CCc1cc(Nc2nc(Nc3ccc4c(=O)[nH][nH]c4c3)nc3ccc(-c4ccccc4)cc23)n[nH]1 | < 1000 nM |
| O=c1[nH][nH]c2cc(COCc3nc(Nc4cc(C5CC5)[nH]n4)c4ccccc4n3)ccc12 | < 1000 nM |
| O=c1[nH][nH]c2ccc(-c3nc(Nc4cc(-c5cccs5)[nH]n4)c4ccccc4n3)c(C(F)(F)F)c12 | < 1000 nM |
| Cc1cc(Nc2cc(N3CCCCC3)nc(SCc3ccc4[nH][nH]c(=O)c4c3)n2)n[nH]1 | < 1000 nM |
| O=C(CCNc1ccc2c(=O)[nH][nH]c2c1)Nc1nccnn1 | < 1000 nM |
| O=C(CCSc1ccc2c(=O)[nH][nH]c2c1)Nc1cc(C2CC2)[nH]n1 | < 1000 nM |
| O=c1[nH][nH]c2cc(C(F)(F)F)c(-c3nc(Nc4cc(C5CC5)[nH]n4)nc(-c4ccncc4)n3)cc12 | < 1000 nM |
| O=c1[nH][nH]c2cc(NCCCNc3ccccn3)ccc12 | < 1000 nM |
| O=c1[nH][nH]c2cc(C(F)(F)F)c(-c3nc4c(c(Nc5n[nH]c6ccc(F)cc56)n3)OCCCC4)cc12 | < 1000 nM |
| O=c1[nH][nH]c2cc(NC3CCC(Nc4cc(C5CC5)[nH]n4)C3)ccc12 (stereo not drawn) | < 1000 nM |
| O=C(CCNc1ccccn1)Oc1ccc2c(=O)[nH][nH]c2c1 | < 1000 nM |
| Cn1cnc(NC2CCC(Oc3ccc4c(=O)[nH][nH]c4c3)C2)c1 (stereo not drawn) | < 1000 nM |
| O=C(CCNc1cc(C2CC2)[nH]n1)Oc1ccc2c(=O)[nH][nH]c2c1 | < 1000 nM |
| O=c1[nH][nH]c2cc(Cl)c(-c3nc(Nc4n[nH]c5ccccc45)nc(-c4cccnc4)n3)cc12 | < 1000 nM |
| Cc1cnc(CC2CCCC2CCc2ccc3c(=O)[nH][nH]c3c2)s1 (stereo not drawn) | < 1000 nM |
| O=c1[nH][nH]c2cc(OCCONc3ccccn3)ccc12 | < 1000 nM |
| Cc1cnc(NC2COCC(C(C)(C)c3ccc4c(=O)[nH][nH]c4c3)C2)s1 (stereo not drawn) | < 1000 nM |

| Compound | Ki |
| --- | --- |
| O=c1[nH][nH]c2cc(CC(CCNc3ccccn3)Cc3ccccc3)ccc12 (stereo not drawn) | < 1000 nM |
| O=c1[nH][nH]c2ccc(-c3nc(Nc4n[nH]c5c(F)cc(F)cc45)c4ccncc4n3)c(Cl)c12 | < 1000 nM |
| Cc1cnc(NC(CCCc2ccc3c(=O)[nH][nH]c3c2)c2ccccc2)s1 (stereo not drawn) | < 1000 nM |
| Cn1cnc(NC(=O)CC(=O)Nc2ccc3c(=O)[nH][nH]c3c2)c1 | < 1000 nM |
| O=c1[nH][nH]c2cc(OCCC(Nc3ccccn3)c3ccccc3)ccc12 (stereo not drawn) | < 1000 nM |
| Cc1cc(Nc2nc(-c3cc4c(=O)[nH][nH]c4cc3C(F)(F)F)nc3cnoc23)n[nH]1 | < 1000 nM |
| Cn1cnc(NC(CCNc2ccc3c(=O)[nH][nH]c3c2)c2ccccc2)c1 (stereo not drawn) | < 1000 nM |
| O=c1[nH][nH]c2cc(OCCONc3nccnn3)ccc12 | < 1000 nM |
| Cn1cnc(NCCC(Cc2ccccc2)Oc2ccc3c(=O)[nH][nH]c3c2)c1 (stereo not drawn) | < 1000 nM |
| Cc1nc(Nc2nc(-c3ccc4[nH][nH]c(=O)c4c3C(N)=O)nc3ccccc23)n[nH]1 | < 1000 nM |
| Cn1cnc(NC(=O)CC(=O)Cc2ccc3c(=O)[nH][nH]c3c2)c1 | < 1000 nM |
| O=c1[nH][nH]c2cc(SC3COCC(Nc4cc(C5CC5)[nH]n4)C3)ccc12 (stereo not drawn) | < 1000 nM |
| Cc1nc(Nc2cc(-c3ccncc3)nc(-c3ccc4[nH][nH]c(=O)c4c3C(F)(F)F)n2)n[nH]1 | < 1000 nM |
| O=c1[nH][nH]c2cc(OCCCNc3nccnn3)ccc12 | < 1000 nM |
| CC(C)(C)c1cc(Nc2nc(-c3ccc4[nH][nH]c(=O)c4c3C(F)(F)F)nc3ccccc23)n[nH]1 | < 1000 nM |
| Cn1cnc(NC(CCOc2ccc3c(=O)[nH][nH]c3c2)c2ccccc2)c1 (stereo not drawn) | < 1000 nM |
| O=c1[nH][nH]c2cc(Cl)c(-c3cc(Nc4cc(C5CC5)[nH]n4)c4ccccc4n3)cc12 | < 1000 nM |
| O=c1[nH][nH]c2cc(O)c(-c3nc(Nc4n[nH]c5c(F)cc(F)cc45)c4ccccc4n3)cc12 | < 1000 nM |
| O=c1[nH][nH]c2ccc(C3CCC(Nc4cc(C5CC5)[nH]n4)C3)cc12 (stereo not drawn) | < 1000 nM |
| O=c1[nH][nH]c2cc(SCC3CCCC3Nc3nccnn3)ccc12 (stereo not drawn) | < 1000 nM |
| O=c1[nH][nH]c2cc(NCCC(Nc3ccccn3)c3ccccc3)ccc12 (stereo not drawn) | < 1000 nM |

Now from value to compound:

| Ki | Compound |
| --- | --- |
| < 1000 nM | Cc1cc(Nc2cc(C(C)(C)C)nc(Sc3ccc4c(=O)[nH][nH]c4c3)n2)n[nH]1 |
| < 1000 nM | Cc1cc(Nc2nc(Nc3ccc4c(=O)[nH][nH]c4c3)nc3c2CCNC3)n[nH]1 |
| < 1000 nM | Cn1cnc(Nc2cccc(Nc3ccc4c(=O)[nH][nH]c4c3)c2)c1 |
| < 1000 nM | CN(C)CCCOc1cc(Nc2cc(C3CC3)[nH]n2)nc(Sc2ccc3c(=O)[nH][nH]c3c2)n1 |
| < 1000 nM | Cc1cc(Nc2ccnc(Sc3ccc4c(=O)[nH][nH]c4c3)c2)n[nH]1 |
| < 1000 nM | Cc1cc(Nc2cc(C)[nH]n2)nc(C(C)(C)c2ccc3c(=O)[nH][nH]c3c2)n1 |
| < 1000 nM | Cc1cc(Nc2nc(-c3ccc4[nH][nH]c(=O)c4c3)nc3ccsc23)n[nH]1 |
| < 1000 nM | COc1cc(-c2cc(Nc3cc(C)[nH]n3)nc(Nc3ccc4c(=O)[nH][nH]c4c3)n2)cc(OC)c1OC |
| < 1000 nM | Cc1cc(Nc2nc(Sc3ccc4c(=O)[nH][nH]c4c3)nc3cc(NO)ccc23)n[nH]1 |
| < 1000 nM | Cc1cc(Nc2nc(-c3cc4c(=O)[nH][nH]c4cc3Cl)cc3ccccc23)n[nH]1 |
| < 1000 nM | Cc1cc(Nc2nc(-c3ccc4[nH][nH]c(=O)c4c3)nc3cc(-n4cccc4)ccc23)n[nH]1 |
| < 1000 nM | COCc1cc(Nc2nc(Nc3ccc4c(=O)[nH][nH]c4c3)nc3ccccc23)n[nH]1 |
| < 1000 nM | COc1ccc(-c2cc(Nc3cc(C)[nH]n3)nc(Oc3ccc4c(=O)[nH][nH]c4c3)n2)cc1 |
| < 1000 nM | O=c1[nH][nH]c2cc(Nc3ncnc(Nc4cc(C5CC5)[nH]n4)n3)ccc12 |
| < 1000 nM | O=c1[nH][nH]c2cc(Nc3cccc(Nc4cc(C5CC5)[nH]n4)c3)ccc12 |
| < 1000 nM | Cc1cc(Nc2cc(-c3ccccc3C)nc(Sc3ccc4c(=O)[nH][nH]c4c3)n2)n[nH]1 |

| Ki | Compound |
| --- | --- |
| < 1000 nM | COCc1cc(Nc2cc(C)[nH]n2)nc(Nc2ccc3c(=O)[nH][nH]c3c2)n1 |
| < 1000 nM | Cc1cc(Nc2cc(-c3cc4c(=O)[nH][nH]c4cc3C(F)(F)F)nc3cnccc23)n[nH]1 |
| < 1000 nM | Cc1cc(Nc2nc([C@@H]3C[C@H]3c3ccc4c(=O)[nH][nH]c4c3)nc3ccccc23)n[nH]1 |
| < 1000 nM | Cc1cc(Nc2cc(COc3ccc4c(=O)[nH][nH]c4c3)nc3c2CCCC3)n[nH]1 |
| < 1000 nM | O=c1[nH][nH]c2ccc(CNc3cc(Nc4cc(C5CC5)[nH]n4)ccn3)cc12 |
| < 1000 nM | Cc1cc(Nc2nc(Sc3ccc4c(=O)[nH][nH]c4c3)nc3cc([N+](=O)[O-])ccc23)n[nH]1 |
| < 1000 nM | O=c1[nH][nH]c2cc(Sc3cc4ccccc4c(Nc4n[nH]c5ccccc45)n3)ccc12 |
| < 1000 nM | Cc1cc(Nc2nc(-c3ccc4[nH][nH]c(=O)c4c3)cc3ccccc23)n[nH]1 |
| < 1000 nM | COCCNc1cc(Nc2cc(C)[nH]n2)nc(SCc2ccc3[nH][nH]c(=O)c3c2)n1 |
| < 1000 nM | Cc1cc(Nc2cc(C)[nH]n2)nc(Cc2ccc3c(=O)[nH][nH]c3c2)n1 |
| < 1000 nM | Cc1cc(Nc2cccc(NCc3ccc4c(=O)[nH][nH]c4c3)n2)n[nH]1 |
| < 1000 nM | Cc1cc(Nc2nc(Oc3ccc4c(=O)[nH][nH]c4c3)nc3ccccc23)n[nH]1 |
| < 1000 nM | Cc1cc(Nc2nc(COc3ccc4c(=O)[nH][nH]c4c3)nc3c2CNCC3)n[nH]1 |
| < 1000 nM | CC(=O)Nc1ccc(Sc2cc(Nc3cc(C)[nH]n3)nc(-c3ccc4[nH][nH]c(=O)c4c3)n2)cc1 |
| < 1000 nM | O=c1[nH][nH]c2cc(Oc3cc(Nc4cc(C5CC5)[nH]n4)ccn3)ccc12 |
